According to paper PMC10272271, “MAM-2201 acute administration impairs motor, sensorimotor, prepulse inhibition, and memory functions in mice: a comparison with its analogue AM-2201” (Psychopharmacology, 2023):

System: CD-1 male mice
Assay: Visual placing response test
Format: in vivo, mouse
Experimental: For the overall study 234 mice were used. In sensorimotor (visual object, visual placing, acoustic, and overall tactile responses) tests for MAM-2201, experiments for each treatment dose (vehicle or 5 different MAM-2201 doses, 0.01, 0.1, 1, 3, and 6 mg/kg) used 8 mice (total mice used: 48) and for MAM-2201 with AM-251 pretreatment, experiments for each dose regimen (vehicle + AM-251 or MAM-2201 + AM-251, 6 mg/kg) used 16 mice. In the analysis of spontaneous locomotion (open field test) for MAM-2201, experiments for each treatment regimen (vehicle or 4 different MAM-2201 doses, 0.01, 0.1, 1, and 6 mg/kg) used 10 mice (total mice used: 50). In the PPI test for MAM-2201, experiments for each treatment (vehicle or 3 different MAM-2201 doses, 0.01, 0.1, and 1 mg/kg) used 10 mice (total mice used: 40), while for MAM-2201 experiments in the Novel Object Recognition (NOR) test for each treatment regimen (vehicle or 3 different MAM-2201 and vehicle or 3 different AM-2201 doses, 0.01, 0.1, and 1 mg/kg) used 10 mice (total mice used: 80). […] The voluntary and involuntary motor responses of the animal to different visual, acoustic, and tactile stimuli were evaluated according to the procedure described in our previous studies (Ossato et al. [2015]; Bilel et al. [2020]). To reduce the number of animals used, mice were evaluated in functional observational tests carried out in a consecutive manner according to the following time scheme: observation of visual object responses (frontal and lateral view), acoustic response, tactile response (vibrissae, corneal and pinnae reflexes), and visual placing response. Sensorimotor tests were measured at 10, 30, 60, 120, 180, 240, and 300 min after injections for the evaluation of the visual object, acoustic and the tactile response, and at 15, 45, 75, 135, 195, 255, and 315 min after injections for the evaluation of visual placing response. […] Sensory gating was evaluated by analysis of the pre-pulse inhibition (PPI) of the acoustic startle reflex as previously described (Bilel et al. [2020]). […]

SMILES: Cc1ccc(C(=O)c2cn(CCCCCF)c3ccccc23)c2ccccc12 [MAM-2201, 1-[(5-fluoropentyl)-1H-indol-3-yl](4-methyl-1-naphthalenyl) methanone]
- effect on visual placing response (0.01-6 mg/kg i.p., persisted up to 5 h at all doses): drastic impairment
- ED50 (Mus musculus, ip, mice, value ± SEM): 0.291 ± 0.025 mg/kg
